≈ marks a conversion by molar mass, not a printed value. Calls of active or inactive are those of the source. No cut-off for these calls is given here.
Key:
A498 [1] = experiment: cells; conditions: Homo sapiens, A498, 24 h
Description: Antiproliferative activity against human A498 cells assessed as cell growth inhibition incubated for 1 days by MTS assay

A498 [2] = experiment: cells; conditions: Homo sapiens, A498, 48 h
Description: Antiproliferative activity against human A498 cells assessed as cell growth inhibition incubated for 2 days by MTS assay

A498 [3] = experiment: cells; conditions: Homo sapiens, A498, 72 h
Description: Antiproliferative activity against human A498 cells assessed as cell growth inhibition incubated for 3 days by MTS assay

MDA-MB-361 [4] = experiment: Antiproliferative activity against human MDA-MB-361 cells assessed as cell growth inhibition incubated for 1 days by MTS assay; type: functional, cell-based; conditions: MDA-MB-361, 24 h
MDA-MB-361 [5] = experiment: Antiproliferative activity against human MDA-MB-361 cells assessed as cell growth inhibition incubated for 2 days by MTS assay; type: functional, cell-based; conditions: MDA-MB-361, 48 h
MDA-MB-361 [6] = experiment: Antiproliferative activity against human MDA-MB-361 cells assessed as cell growth inhibition incubated for 3 days by MTS assay; type: functional, cell-based; conditions: MDA-MB-361, 72 h
MDA-MB-361 [7] = experiment: Induction of apoptosis in human MDA-MB-361 cells assessed as little increase in G1 phase at 5 micromol/L incubated for 12 hrs by FACS analysis relative to control; type: functional, cell-based; conditions: dose 5.0 µmol/L
LNCaP [8] = experiment: Induction of apoptosis in human LNCaP cells assessed as increase in caspase-3/caspase-7 activity at 1 to 6 uM incubated for 24 to 48 hrs; type: functional, cell-based; conditions: dose 1-6 µM, time 24-48 hrs
MDA-MB-361 [9] = experiment: Induction of apoptosis in human MDA-MB-361 cells assessed as increase in caspase-3/caspase-7 activity at 1 to 6 uM incubated for 24 to 48 hrs; type: functional, cell-based; conditions: dose 1-6 µM, time 24-48 hrs
MDA-MB-361 [10] = experiment: Induction of apoptosis in human MDA-MB-361 cells assessed as increase in G1 phase at 5 micromol/L incubated for 24 hrs by FACS analysis relative to control; type: functional; conditions: dose 5 µmol/L, at 5 µM
[11] = target: T1, Serine/threonine-protein kinase mTOR (Homo sapiens, UniProt P42345); experiment: Inhibition of mTOR in human MDA-MB-361 cells assessed as 4EBP1 phosphorylation at T37/46 level at 1 micromol/L incubated 16 hrs by westernblot analysis; type: cell-based; conditions: dose 1.0 µmol/L
MDA-MB-361 [12] = experiment: Antitumor activity against human MDA-MB-361 cells assessed as reduction in oxygen consumption rate at 1 micromol/L incubated for 1 hrs relative to control; type: functional; design: scale not given: the % may be the effect or the level left; conditions: dose 1 µmol/L, at 1 µM
MDA-MB-361 [13] = experiment: Induction of apoptosis in PI3K/mTOR hyperactive human MDA-MB-361 cells assessed as massive cell death at 0.001 to 100 micromol/L incubated for 48 hrs by FACS analysis; type: functional, cell-based; conditions: dose 0.001-100 µmol/L
MDA-MB-361 [14] = experiment: Antiproliferative activity against human MDA-MB-361 cells assessed as suppression in cell growth at 10 micromol/L incubated for 3 days by MTS assay relative to control; type: functional; conditions: dose 10 µmol/L; time 3 day; at 10 µM
A549 [15] = experiment: Antiproliferative activity against human A549 cells assessed as suppression in cell growth at 10 micromol/L incubated for 3 days by MTS assay relative to control; type: functional; conditions: dose 10 µmol/L; time 3 day; at 10 µM
U-87 MG [16] = experiment: Antitumor activity against human U-87MG cells assessed as reduction in lactate production at 1 micromol/L incubated for 24 hrs relative to control; type: functional, U-87MG ATCC; design: scale not given: the % may be the effect or the level left; conditions: dose 1 µmol/L, at 1 µM
[17] = target: T1, Serine/threonine-protein kinase mTOR; experiment: Inhibition of mTOR in human MDA-MB-361 cells assessed as 4EBP1 phosphorylation at T70 level at 1 micromol/L incubated 16 hrs by westernblot analysis; type: cell-based; conditions: dose 1.0 µmol/L
MDA-MB-361 [18] = experiment: Induction of apoptosis in HER2 hyperactive human MDA-MB-361 cells assessed as massive cell death at 0.001 to 100 micromol/L incubated for 48 hrs by FACS analysis; type: functional, cell-based; conditions: dose 0.001-100 µmol/L
A498 [19] = experiment: Antiproliferative activity against human A498 cells assessed as suppression in cell growth at 10 micromol/L incubated for 3 days by MTS assay relative to control; type: functional; conditions: dose 10 µmol/L; time 3 day; at 10 µM
MDA-MB-361 [20] = experiment: Induction of apoptosis in PI3K/mTOR hyperactive human MDA-MB-361 cells assessed as cell death at 0.001 to 100 micromol/L incubated for 24 hrs by FACS analysis; type: functional, cell-based; conditions: dose 0.001-100 µmol/L
MDA-MB-361 [21] = experiment: Induction of apoptosis in HER2 hyperactive human MDA-MB-361 cells assessed as cell death at 0.001 to 100 micromol/L incubated for 24 hrs by FACS analysis; type: functional, cell-based; conditions: dose 0.001-100 µmol/L
U-87 MG [22] = experiment: Antitumor activity against human U-87MG cells assessed as lactate production incubated for 24 hrs; type: functional, cell-based; conditions: U-87MG ATCC, dose 0.01-10 µmol/L
MDA-MB-361 [23] = experiment: Induction of apoptosis in human MDA-MB-361 cells assessed as PARP cleavage at 0.5 to 5 micromol/L incubated for 48 hrs by Western blot analysis; type: functional, cell-based; conditions: dose 0.5-5 µmol/L
U-87 MG [24] = experiment: Antiproliferative activity against human U-87MG cells assessed as suppression in cell growth at 10 micromol/L incubated for 3 days by MTS assay relative to control; type: functional, U-87MG ATCC; conditions: dose 10 µmol/L; time 3 day; at 10 µM
A498 [25] = experiment: Antiproliferative activity against human A498 cells assessed as reduction in cell size at 1 micromol/L incubated for 48 hrs by Flow cytometry analysis relative to control; type: functional; design: scale not given: the % may be the effect or the level left; conditions: dose 1 µmol/L, at 1 µM
A549 [26] = experiment: Antitumor activity against VHL null-human A549 cells xenografted in female nude mouse model assessed as inhibition in tumor growth at 25 mg/kg, iv administered 5 times a week; type: functional, organism-based
LNCaP [27] = experiment: Antiproliferative activity against human LNCaP cells assessed as suppression in cell growth at 10 micromol/L incubated for 3 days by MTS assay relative to control; type: functional; conditions: dose 10 µmol/L; time 3 day; at 10 µM
MDA-MB-361 [28] = experiment: Inhibition of protein synthesis in human MDA-MB-361 cells at 3 micromol/L incubated for 3 hrs by [3H] methionine incorporation based scintillation counter analysis; type: functional, cell-based; conditions: dose 3.0 µmol/L
[29] = target: T1, Serine/threonine-protein kinase mTOR; experiment: Inhibition of mTOR in human MDA-MB-361 cells assessed as 4EBP1 phosphorylation at S65 level at 1 micromol/L incubated 16 hrs by westernblot analysis; type: cell-based; conditions: dose 1.0 µmol/L
HEK293 = experiment: Antiproliferative activity against HEK293 cells assessed as reduction in polysomes at 0.5 micromol/L incubated for 16 hrs; type: functional, Homo sapiens; conditions: dose 0.5 µmol/L
A549 [30] = experiment: Antitumor activity against human A549 cells xenografted in female nude mouse model assessed as substantial regression in large tumor growth at 200 mg/kg, iv administered once a week; type: functional, organism-based

For CC(=O)O[C@H]1C(=O)[C@@]2(C)[C@H]([C@H](OC(=O)c3ccccc3)[C@]3(O)C[C@H](OC(=O)[C@H](O)[C@@H](NC(=O)c4ccccc4)c4ccccc4)C(C)=C1C3(C)C)[C@]1(OC(C)=O)CO[C@@H]1C[C@@H]2O [PACLITAXEL], the IC50 (A498 [1]) was > 0.15 µg/mL, the IC50 (A498 [2]) was > 0.15 µg/mL and the IC50 (A498 [3]) was 0.03 µg/mL (≈ 0.0351 µM). For the same compound, the IC50 (MDA-MB-361 [4]) was > 0.15 µg/mL, the IC50 (MDA-MB-361 [5]) was > 0.15 µg/mL and the IC50 (MDA-MB-361 [6]) was 4 ng/mL (≈ 0.00468 µM).
With Oc1cccc(-c2nc(N3CCOCC3)c3oc4ncccc4c3n2)c1 [PI-103] the Activity (MDA-MB-361 [7]) was “Active”, the Activity (LNCaP [8]) was “Active” and the Activity (MDA-MB-361 [9]) was “Active”. It also gave an Activity (MDA-MB-361 [10]) of 27%.
For CO[C@H]1C[C@@H]2CC[C@@H](C)[C@@](O)(O2)C(=O)C(=O)N2CCCC[C@H]2C(=O)O[C@H]([C@H](C)C[C@@H]2CC[C@@H](OC(=O)C(C)(CO)CO)[C@H](OC)C2)CC(=O)[C@H](C)/C=C(\C)[C@@H](O)[C@@H](OC)C(=O)[C@H](C)C[C@H](C)/C=C/C=C/C=C/1C [TEMSIROLIMUS], the inhibition [11] was “inactive”, the Activity (MDA-MB-361 [12]) was 82% and the Activity (MDA-MB-361 [13]) was “inactive”. For the same compound, the Activity (MDA-MB-361 [14]) was “<=50%”, the Activity (A549 [15]) was “<=50%” and the Activity (U-87 MG [16]) was 80%. For the same compound, the inhibition [17] was “Active”, the Activity (MDA-MB-361 [18]) was “inactive” and the Activity (A498 [19]) was “<=50%”. The Activity (MDA-MB-361 [20]) was “inactive”, the Activity (MDA-MB-361 [21]) was “inactive” and the Activity (U-87 MG [22]) was “Dose-Dependent Effect”. For the same compound, the Activity (MDA-MB-361 [23]) was “inactive”, the Activity (U-87 MG [24]) was “<=50%” and the Activity (A498 [25]) was 97%. For the same compound, the inhibition (A549 [26]) was “Active”, the Activity (LNCaP [27]) was “<=50%” and the inhibition (MDA-MB-361 [28]) was “inactive”. For the same compound, the inhibition [29] was “Active”, the Activity (HEK293) was 1.02 and the Activity (A549 [30]) was “inactive”.

From ChEMBL document CHEMBL5696439 (Cancer Res, 2010)
